The record followed here is patent US20170226120A1, “INHIBITORS OF HIF PROLYL HYDROXYLASE” (MERCK SHARP & DOHME CORP., priority 2014, published 2017).

One data set concerns the target T1, human HIF-PHD2 (Homo sapiens, UniProt Q9GZT9).
T1 construct: FLAG-tagged full length PHD2 expressed in and purified from baculovirus-infected Sf9 cells; FLAG; made in house; host or cells: baculovirus-infected Sf9 cells
Nature of the data set: HIF-PHD2 inhibition, time resolved fluorescence assay of HIF-1α peptide hydroxylation. It is filed as biochemical. The note with it: FLAG-tagged full length PHD2; 0.2 μM 2-oxoglutarate, 0.5 μM HIF-1α peptide. The method, then:
To each well of a 384-well plate, 1 μL of test compounds in DMSO (final concentration ranging from 0.3 nM to 10 uM) were added into 20 μl of assay buffer (50 mM Tris pH 7.4/0.01% Tween-20/0.1 mg/ml bovine serum albumin/10 μM ferrous sulfate/1 mM sodium ascorbate/20 μg/ml catalase) containing 0.15 μg/ml FLAG-tagged full length PHD2 expressed in and purified from baculovirus-infected Sf9 cells. After a 5 min preincubation at room temperature, the enzymatic reactions were initiated by the addition of 4 μL of substrates {final concentrations of 0.2 μM 2-oxoglutarate and 0.5 μM HIF-1α peptide biotinyl-[…] […] After incubation for 45 minutes at room temperature, the reactions were terminated by the addition of a 25 μL quench/detection mix to a final concentration of 1 mM ortho-phenanthroline, 0.1 mM EDTA, 0.5 nM anti-(His)6 LANCE reagent (Perkin-Elmer Life Sciences), 100 nM AF647-labeled streptavidin (Invitrogen), and 2 μg/ml (His)6-VHL complex {S. Tan Protein Expr. Purif.

The nature of data set [1]: Tissue PK profile in rat (liver and plasma drug level). Type of data set: in vivo. The note with it: 10 mg/kg; for concentration at 4 h: po; for Kp at 4 h: liver/plasma, read-out: liver/plasma ratio. As to the method:
The tissue PK profile of compounds described in this application were evaluated in rat. The tissue was harvested 4 hours after PO dosing at 10 mpk (vehicle: 0.5% MC; dose volume: 5 mL/Kg) and the drug level was determined. Shown in Table 1 are compound concentrations of selected examples in rat liver and plasma, as well as liver to plasma drug ratio.

[2] abbreviates: liver, 4 hours after PO dosing at 10 mpk, vehicle 0.5% MC, read-out: liver concentration.
Setting [3] is: 4 hours after PO dosing at 10 mpk, vehicle 0.5% MC.
[4] abbreviates: plasma, 4 hours after PO dosing at 10 mpk, vehicle 0.5% MC, read-out: plasma concentration.

Molecules are shown by their SMILES. Read-outs that look alike come from different tables or passages of the source.

The IC50 is the concentration that gives 50% inhibition.

T1 sequence (Q9GZT9 whole entry): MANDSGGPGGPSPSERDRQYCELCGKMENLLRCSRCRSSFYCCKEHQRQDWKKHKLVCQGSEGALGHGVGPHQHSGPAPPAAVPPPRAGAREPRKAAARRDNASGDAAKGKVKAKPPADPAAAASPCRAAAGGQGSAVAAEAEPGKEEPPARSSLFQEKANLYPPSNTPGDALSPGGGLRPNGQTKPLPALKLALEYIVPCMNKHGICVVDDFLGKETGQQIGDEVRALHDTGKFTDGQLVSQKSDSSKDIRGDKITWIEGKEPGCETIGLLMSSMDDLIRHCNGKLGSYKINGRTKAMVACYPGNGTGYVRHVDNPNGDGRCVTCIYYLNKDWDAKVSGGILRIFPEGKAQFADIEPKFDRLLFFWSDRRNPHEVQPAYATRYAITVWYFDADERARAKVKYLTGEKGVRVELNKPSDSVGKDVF

In the case of `NC(=O)c1ccc(-c2ccc(Cn3c4c(c(O)c(C(=O)NCC(=O)O)c3=O)COC4)cc2)cc1` [Example 61, 2-(1-((4′-carbamoyl-[1,1′-biphenyl]-4-yl)methyl)-4-hydroxy-2-oxo-1,2,5,7-tetrahydrofuro[3,4-b]pyridine-3-carboxamido)acetic acid], on human HIF-PHD2, the half-inhibitory concentration (IC50) turned out to be 1.1 nM. In addition, the values for the concentration at 4 h in data set [1] (setting [2]) and in data set [1] (setting [4]) were 25.8 nM and 5.28 nM, respectively. Moreover, the Kp at 4 h in data set [1] (setting [3]) was 4.89.

As for `O=C(O)CNC(=O)c1c(O)c2c(n(Cc3cnc(C(F)(F)F)cn3)c1=O)COC2` [Example 11, 2-(4-hydroxy-2-oxo-1-((5-(trifluoromethyl)pyrazin-2-yl)methyl)-1,2,5,7-tetrahydrofuro[3,4-b]pyridine-3-carboxamido)acetic acid], the concentration at 4 h was found to be 7900 nM in data set [1] (in vivo, liver concentration) and 22 nM in data set [1] (in vivo, plasma concentration). In addition, in data set [1] (setting [3]), the Kp at 4 h turned out to be 359.

As for `O=C(O)CNC(=O)c1c(O)c2c(n(Cc3nc(C(F)(F)F)cs3)c1=O)COC2` [Example 21, 2-(4-hydroxy-2-oxo-1-((4-(trifluoromethyl)thiazol-2-yl)methyl)-1,2,5,7-tetrahydrofuro[3,4-b]pyridine-3-carboxamido)acetic acid], the concentration at 4 h in data set [1] (in vivo, liver concentration) worked out at 4770 nM; in data set [1] (in vivo, plasma concentration), 8 nM. Further, in data set [1] (setting [3]), the Kp at 4 h was found to be 587.

With `N#Cc1ccc(Cn2c3c(c(O)c(C(=O)NCC(=O)O)c2=O)COC3)cc1` [Example 6, 2-(1-(4-Cyanobenzyl)-4-hydroxy-2-oxo-1,2,5,7-tetrahydrofuro[3,4-b]pyridine-3-carboxamido)acetic acid], the half-inhibitory concentration (IC50) against human HIF-PHD2 came out at 3.1 nM. Further, the values for the concentration at 4 h in data set [1] (setting [2]) and in data set [1] (setting [4]) were 1820 nM and 123 nM, respectively. For the same compound, the Kp at 4 h in data set [1] (setting [3]) is 17.9.

`O=C(O)CNC(=O)c1c(O)c2c(n(Cc3ccc(F)cc3F)c1=O)COC2` [Example 32, 2-(1-(2,4-difluorobenzyl)-4-hydroxy-2-oxo-1,2,5,7-tetrahydrofuro[3,4-b]pyridine-3-carboxamido)acetic acid]: the concentration at 4 h in data set [1] (in vivo, liver concentration) came to 24800 nM; in data set [1] (in vivo, plasma concentration), 492 nM. The Kp at 4 h in data set [1] (setting [3]) came out at 52.8.

Take `O=C(O)CNC(=O)c1c(O)c2c(n(Cc3nc4ccccc4o3)c1=O)COC2` [Example 46, 2-(1-(benzo[d]oxazol-2-ylmethyl)-4-hydroxy-2-oxo-1,2,5,7-tetrahydrofuro[3,4-b]pyridine-3-carboxamido)acetic acid]: the concentration at 4 h in data set [1] (in vivo, liver concentration) amounted to 2070 nM; in data set [1] (in vivo, plasma concentration), 34.5 nM. Also, the Kp at 4 h in data set [1] (setting [3]) stood at 55.

Consider `O=C(O)CNC(=O)c1c(O)c2c(n(Cc3ncc(C(F)(F)F)cn3)c1=O)COC2` [Example 9, 2-(4-hydroxy-2-oxo-1-((5-(trifluoromethyl)pyrimidin-2-yl)methyl)-1,2,5,7-tetrahydrofuro[3,4-b]pyridine-3-carboxamido)acetic acid], for which the concentration at 4 h in data set [1] (in vivo, liver concentration) was found to be 1810 nM; in data set [1] (in vivo, plasma concentration), 37.6 nM. In addition, in data set [1] (setting [3]), the Kp at 4 h turned out to be 43.6.

For the compound `CC(C)(O)c1ccc(Cn2c3c(c(O)c(C(=O)NCC(=O)O)c2=O)COC3)cc1` [Example 5, 2-(4-Hydroxy-1-(4-(2-hydroxypropan-2-yl)benzyl)-2-oxo-1,2,5,7-tetrahydrofuro[3,4-b]pyridine-3-carboxamido)acetic acid], the concentration at 4 h turned out to be 5600 nM in data set [1] (in vivo, liver concentration) and 26.7 nM in data set [1] (in vivo, plasma concentration). Moreover, the Kp at 4 h in data set [1] (setting [3]) was 214.

Regarding `O=C(O)CNC(=O)c1c(O)c2c(n(Cc3cnc(C(F)(F)F)s3)c1=O)COC2` [Example 18, 2-(4-hydroxy-2-oxo-1-((2-(trifluoromethyl)thiazol-5-yl)methyl)-1,2,5,7-tetrahydrofuro[3,4-b]pyridine-3-carboxamido)acetic acid], the concentration at 4 h in data set [1] (in vivo, liver concentration) was determined as 11800 nM; in data set [1] (in vivo, plasma concentration) it was 55.9 nM. Besides, the Kp at 4 h in data set [1] (setting [3]) was 258.

For `O=C(O)CNC(=O)c1c(O)c2c(n(Cc3ccn(-c4ccccc4)n3)c1=O)COC2` [Example 22, 2-(4-hydroxy-2-oxo-1-((1-phenyl-1H-pyrazol-3-yl)methyl)-1,2,5,7-tetrahydrofuro[3,4-b]pyridine-3-carboxamido)acetic acid], the concentration at 4 h in data set [1] (in vivo, liver concentration) amounted to 816 nM; in data set [1] (in vivo, plasma concentration), 11.8 nM. Besides, the Kp at 4 h in data set [1] (setting [3]) came out at 66.6.

At human HIF-PHD2, `O=C(O)CNC(=O)c1c(O)c2c(n(Cc3ccc(C(F)(F)F)c(Br)c3)c1=O)COC2` [Example 45, 2-(1-(3-bromo-4-(trifluoromethyl)benzyl)-4-hydroxy-2-oxo-1,2,5,7-tetrahydrofuro[3,4-b]pyridine-3-carboxamido)acetic acid] returned an IC50 of 3.3 nM.

`O=C(O)CNC(=O)c1c(O)c2c(n(Cc3ncco3)c1=O)COC2` [Example 15, 2-(4-hydroxy-1-(oxazol-2-ylmethyl)-2-oxo-1,2,5,7-tetrahydrofuro[3,4-b]pyridine-3-carboxamido)acetic acid]: the 50% inhibitory concentration (IC50) at human HIF-PHD2 worked out at 9.7 nM.

`Cc1cc(Cn2c3c(c(O)c(C(=O)NCC(=O)O)c2=O)COC3)ccc1Cl` [Example 50, 2-(1-(4-chloro-3-methylbenzyl)-4-hydroxy-2-oxo-1,2,5,7-tetrahydrofuro[3,4-b]pyridine-3-carboxamido)acetic acid] yielded an IC50 on human HIF-PHD2 of 5 nM.

On to `O=C(O)CNC(=O)c1c(O)c2c(n(Cc3cc(F)c(F)cc3F)c1=O)COC2` [Example 41, 2-(4-hydroxy-2-oxo-1-(2,4,5-trifluorobenzyl)-1,2,5,7-tetrahydrofuro[3,4-b]pyridine-3-carboxamido)acetic acid], for which the concentration at 4 h was found to be 41400 nM in data set [1] (in vivo, liver concentration) and 476 nM in data set [1] (in vivo, plasma concentration). Further, the Kp at 4 h in data set [1] (setting [3]) is 87.3.

At human HIF-PHD2, `O=C(O)CNC(=O)c1c(O)c2c(n(Cc3cnc4ccccc4c3)c1=O)COC2` [Example 48, 2-(4-hydroxy-2-oxo-1-(quinolin-3-ylmethyl)-1,2,5,7-tetrahydrofuro[3,4-b]pyridine-3-carboxamido)acetic acid] registered a concentration for half-maximal inhibition (IC50) of 12.6 nM.

`CC(C)c1ccc(Cn2c3c(c(O)c(C(=O)NCC(=O)O)c2=O)COC3)cc1` [Example 29, 2-(4-hydroxy-1-(4-isopropylbenzyl)-2-oxo-1,2,5,7-tetrahydrofuro[3,4-b]pyridine-3-carboxamido)acetic acid] registered an IC50 on human HIF-PHD2 of 2.9 nM.

The compound `CS(=O)(=O)c1ccc(Cn2c3c(c(O)c(C(=O)NCC(=O)O)c2=O)COC3)cc1` [Example 7, 2-(4-hydroxy-1-(4-(methylsulfonyl)benzyl)-2-oxo-1,2,5,7-tetrahydrofuro[3,4-b]pyridine-3-carboxamido)acetic acid] had an IC50 against human HIF-PHD2 of 7 nM.

On to `O=C(N[C@H](CO)C(=O)O)c1c(O)c2c(n(Cc3ccc(C(F)(F)F)cc3)c1=O)COC2` [Example 1, (R)-3-Hydroxy-2-(4-hydroxy-2-oxo-1-(4-(trifluoromethyl)benzyl)-1,2,5,7-tetrahydrofuro[3,4-b]pyridine-3-carboxamido)propanoic acid], for which the IC50 against human HIF-PHD2 was 59.7 nM.

On to `O=C(O)CNC(=O)c1c(O)c2c(n(Cc3cnc(C(F)(F)F)nc3)c1=O)COC2` [Example 12, 2-(4-hydroxy-2-oxo-1-((2-(trifluoromethyl)pyrimidin-5-yl)methyl)-1,2,5,7-tctrahydrofuro[3,4-b]pyridine-3-carboxamido)acetic acid], for which the concentration at 4 h is 775 nM in data set [1] (in vivo, liver concentration) and 12.3 nM in data set [1] (in vivo, plasma concentration). In addition, in data set [1] (setting [3]), the Kp at 4 h turned out to be 67.3.

Take `O=C(O)CNC(=O)c1c(O)c2c(n(Cc3ccccc3)c1=O)COC2` [Example 25, 2-(1-benzyl-4-hydroxy-2-oxo-1,2,5,7-tetrahydrofuro[3,4-b]pyridine-3-carboxamido)acetic acid]: the half-inhibitory concentration (IC50) against human HIF-PHD2 was 9.2 nM. That is a single-digit nanomolar value.

`Cn1c2c(c(O)c(C(=O)NCC(=O)O)c1=O)COC2` [Example 55, 2-(1-methyl-4-hydroxy-2-oxo-1,2,5,7-tetrahydrofuro[3,4-b]pyridine-3-carboxamido)acetic acid] yielded a half-inhibitory concentration (IC50) on human HIF-PHD2 of 10.4 nM.

Turning to `O=C(O)CNC(=O)c1c(O)c2c(n(Cc3ccc(Cl)cc3)c1=O)COC2` [Example 27, 2-(1-(4-chlorobenzyl)-4-hydroxy-2-oxo-1,2,5,7-tetrahydrofuro[3,4-b]pyridine-3-carboxamido)acetic acid], the concentration at 4 h stood at 21500 nM in data set [1] (in vivo, liver concentration) and 551 nM in data set [1] (in vivo, plasma concentration). In addition, the Kp at 4 h in data set [1] (setting [3]) stood at 39.6.

`O=C(O)CNC(=O)c1c(O)c2c(n(Cc3ccccn3)c1=O)COC2` [Example 36, 2-((3-((carboxymethyl)carbamoyl)-4-hydroxy-2-oxofuro[3,4-b]pyridin-1(2H,5H,7H)-yl)methyl)pyridin-1-ium chloride] displayed an IC50 on human HIF-PHD2 of 4.8 nM.

In turn, `O=C(O)CNC(=O)c1c(O)c2c(n(Cc3ccc(Cl)cc3F)c1=O)COC2` [Example 52, 2-(1-(4-chloro-2-fluorobenzyl)-4-hydroxy-2-oxo-1,2,5,7-tetrahydrofuro[3,4-b]pyridine-3-carboxamido)acetic acid] registered an IC50 on human HIF-PHD2 of 2.7 nM.
